Experiments:
[1] = tested on: Staphylococcus aureus (ATCC 29213); experiment: Checkerboard combination / MIC assay with S. aureus ATCC 29213; format: cell-based
Method in brief: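 CLSI broth microdilution checkerboard in CAMHB, final inoculum 5×10^5 CFU/mL, 2% DMSO. Ramizol or Chlopam (11-point 2-fold) crossed with commercial antibiotics (7-point), each starting at 4× MIC; synergy assessed by FIC index (sum of MIC-in-combination/MIC-alone ratios; ≤0.5 synergy, >4 antagonism).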

[2] = tested on: Staphylococcus aureus (BAA-1717); experiment: Checkerboard combination / MIC assay with S. aureus BAA-1717 (MRSA); format: cell-based; settings: for Effect of individual antibiotic combinations: S. aureus BAA-1717
Method in brief: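 CLSI broth microdilution checkerboard in CAMHB (5×10^5 CFU/mL, 2% DMSO final). Ramizol or Chlopam was tested in 11-point two-fold series against 7-point antibiotic titrations, starting at 4× MIC.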

MRSA strains = settings: cited from earlier work

CN[C@H](CC(C)C)C(=O)N[C@H]1C(=O)N[C@@H](CC(N)=O)C(=O)N[C@H]2C(=O)N[C@H]3C(=O)N[C@H](C(=O)N[C@H](C(=O)O)c4cc(O)cc(O)c4-c4cc3ccc4O)[C@H](O)c3ccc(c(Cl)c3)Oc3cc2cc(c3O[C@@H]2O[C@H](CO)[C@@H](O)[C@H](O)[C@H]2O[C@H]2C[C@](C)(N)[C@H](O)[C@H](C)O2)Oc2ccc(cc2Cl)[C@H]1O [Vancomycin]
FICI of combination with Chlopam ([1]; Chlopam 0.003906 μg/mL + labelled antibiotic at MIC of same cell, S. aureus ATCC 29213): 1.0 | MIC of antibiotic in combination with Chlopam ([1]; Chlopam 0.003906 μg/mL, S. aureus ATCC 29213): 1 µg/mL | FICI of combination with Chlopam ([1]; Chlopam 0.0078125 μg/mL + labelled antibiotic at MIC of same cell, S. aureus ATCC 29213): 1.0 | MIC of antibiotic in combination with Chlopam ([1]; Chlopam 0.0078125 μg/mL, S. aureus ATCC 29213): 1 µg/mL | FICI of combination with Chlopam ([1]; Chlopam 0.015625 μg/mL + labelled antibiotic at MIC of same cell, S. aureus ATCC 29213): 1.0 | MIC of antibiotic in combination with Chlopam ([1]; Chlopam 0.015625 μg/mL, S. aureus ATCC 29213): 1 µg/mL | FICI of combination with Chlopam ([1]; Chlopam 0.125 μg/mL + labelled antibiotic at MIC of same line, S. aureus ATCC 29213): 0.8 | MIC of antibiotic in combination with Chlopam ([1]; Chlopam 0.125 μg/mL, S. aureus ATCC 29213): 0.5 µg/mL | FICI of combination with Chlopam ([1]; Chlopam 0.25 μg/mL + labelled antibiotic at MIC of same cell, S. aureus ATCC 29213): 1.0 | MIC of antibiotic in combination with Chlopam ([1]; Chlopam 0.25 μg/mL, S. aureus ATCC 29213): 0.5 µg/mL | Effect of individual antibiotic combinations ([1]; Chlopam and Vancomycin: 0.003901 and 1, 0.0078125 and 1, 0.015625 and 1, 0.125 and 0.5, 0.25 and 0.5 μg/mL, S. aureus ATCC 29213): additive effect | FICI of combination with Ramizol ([1]; Ramizol 0.015625 μg/mL + labelled antibiotic at MIC of same cell, S. aureus ATCC 29213): 1.0 | MIC of antibiotic in combination with Ramizol ([1]; Ramizol 0.015625 μg/mL, S. aureus ATCC 29213): 1 µg/mL | FICI of combination with Ramizol ([1]; Ramizol 0.03125 μg/mL + labelled antibiotic at MIC of same cell, S. aureus ATCC 29213): 1.0 | MIC of antibiotic in combination with Ramizol ([1]; Ramizol 0.03125 μg/mL, S. aureus ATCC 29213): 1 µg/mL | FICI of combination with Ramizol ([1]; Ramizol 0.0625 μg/mL + labelled antibiotic at MIC of same cell, S. aureus ATCC 29213): 1.0 | MIC of antibiotic in combination with Ramizol ([1]; Ramizol 0.0625 μg/mL, S. aureus ATCC 29213): 1 µg/mL | FICI of combination with Ramizol ([1]; Ramizol 0.125 μg/mL + labelled antibiotic at MIC of same cell, S. aureus ATCC 29213): 1.0 | MIC of antibiotic in combination with Ramizol ([1]; Ramizol 0.125 μg/mL, S. aureus ATCC 29213): 1 µg/mL | Effect of individual antibiotic combinations ([1]; Ramizol and Vancomycin: 0.015625 and 1, 0.03125 and 1, 0.0625 and 1, 0.125 and 1 μg/mL, S. aureus ATCC 29213): additive effect | MIC ([1]; Staphylococcus aureus, ATCC29213, read-out: MIC of antibiotic alone): 1 µg/mL | MIC of antibiotic alone ([1]; Table 7, checkerboard series with Ramizol, S. aureus ATCC 29213): 1 µg/mL | Effect of the combinations with Chlopam (by mean FICI) ([1]; labelled antibiotic + Chlopam, S. aureus ATCC 29213): additive effect | mean FICI of combination with Chlopam ([1]; labelled antibiotic + Chlopam, mean of all pairwise combinations, S. aureus ATCC 29213): 1.0 | mean FICI of combination with Ramizol ([1]; labelled antibiotic + Ramizol, mean of all pairwise combinations, S. aureus ATCC 29213): 1.2 | FICI of combination with Chlopam ([2]; Chlopam 0.001953 μg/mL + labelled antibiotic at MIC of same cell, S. aureus ATCC BAA-1717): 1.0 | MIC of antibiotic in combination with Chlopam ([2]; Chlopam 0.001953 μg/mL, S. aureus ATCC BAA-1717): 1 µg/mL | FICI of combination with Chlopam ([2]; Chlopam 0.003906 μg/mL + labelled antibiotic at MIC of same cell, S. aureus ATCC BAA-1717): 1.0 | MIC of antibiotic in combination with Chlopam ([2]; Chlopam 0.003906 μg/mL, S. aureus ATCC BAA-1717): 1 µg/mL | FICI of combination with Chlopam ([2]; Chlopam 0.0078125 μg/mL + labelled antibiotic at MIC of same cell, S. aureus ATCC BAA-1717): 1.0 | MIC of antibiotic in combination with Chlopam ([2]; Chlopam 0.0078125 μg/mL, S. aureus ATCC BAA-1717): 1 µg/mL | FICI of combination with Chlopam ([2]; Chlopam 0.015625 μg/mL + labelled antibiotic at MIC of same cell, S. aureus ATCC BAA-1717): 1.0 | MIC of antibiotic in combination with Chlopam ([2]; Chlopam 0.015625 μg/mL, S. aureus ATCC BAA-1717): 1 µg/mL | FICI of combination with Chlopam ([2]; Chlopam 0.5 μg/mL + labelled antibiotic at MIC of same line, S. aureus ATCC BAA-1717): 1.0 | MIC of antibiotic in combination with Chlopam ([2]; Chlopam 0.5 μg/mL, S. aureus ATCC BAA-1717): 0.031 µg/mL | Effect of individual antibiotic combinations ([2]; Chlopam and Vancomycin: 0.001953 and 1, 0.003901 and 1, 0.0078125 and 1, 0.015625 and 1 μg/mL): additive effect | FICI of combination with Ramizol ([2]; Ramizol 0.015625 μg/mL + labelled antibiotic at MIC of same cell, S. aureus ATCC BAA-1717): 1.0 | MIC of antibiotic in combination with Ramizol ([2]; Ramizol 0.015625 μg/mL, S. aureus ATCC BAA-1717): 1 µg/mL | FICI of combination with Ramizol ([2]; Ramizol 0.03125 μg/mL + labelled antibiotic at MIC of same cell, S. aureus ATCC BAA-1717): 1.0 | MIC of antibiotic in combination with Ramizol ([2]; Ramizol 0.03125 μg/mL, S. aureus ATCC BAA-1717): 1 µg/mL | FICI of combination with Ramizol ([2]; Ramizol 0.0625 μg/mL + labelled antibiotic at MIC of same cell, S. aureus ATCC BAA-1717): 1.0 | MIC of antibiotic in combination with Ramizol ([2]; Ramizol 0.0625 μg/mL, S. aureus ATCC BAA-1717): 1 µg/mL | FICI of combination with Ramizol ([2]; Ramizol 0.125 μg/mL + labelled antibiotic at MIC of same line, S. aureus ATCC BAA-1717): 1.0 | MIC of antibiotic in combination with Ramizol ([2]; Ramizol 0.125 μg/mL, S. aureus ATCC BAA-1717): 1 µg/mL | FICI of combination with Ramizol ([2]; Ramizol 4 μg/mL + labelled antibiotic at MIC of same cell, S. aureus ATCC BAA-1717): 1.0 | MIC of antibiotic in combination with Ramizol ([2]; Ramizol 4 μg/mL, S. aureus ATCC BAA-1717): 0.031 µg/mL | Effect of individual antibiotic combinations ([2]; Ramizol and Vancomycin: 0.015625 and 1, 0.03125 and 1, 0.0625 and 1, 0.125 and 1, 4 and 0.031 μg/mL): additive effect | MIC ([2]; Staphylococcus aureus, ATCC BAA-1717 / BAA-1717, read-out: MIC of antibiotic alone): 1 µg/mL | MIC of antibiotic alone ([2]; Table 7, checkerboard series with Ramizol, S. aureus ATCC BAA-1717): 1 µg/mL | mean FICI of combination with Chlopam ([2]; labelled antibiotic + Chlopam, mean of all pairwise combinations, S. aureus ATCC BAA-1717): 1.2 | mean FICI of combination with Ramizol ([2]; labelled antibiotic + Ramizol, mean of all pairwise combinations, S. aureus ATCC BAA-1717): 1.2 | MIC (MRSA strains; MRSA strains fully resistant to vancomycin): ≥ 32 µg/mL | minimum inhibitory concentration [MIC] (MRSA strains; MRSA strains with decreased susceptibility to vancomycin): 4 to 8 µg/mL

Source: patent US20190328691A1, “ANTIBIOTIC THERAPY” (Boulos & Cooper Pharmaceuticals Pty Ltd, priority 2015, published 2019)
